“Also recorded” adds a separate entry of the source. No end group written: not given here.
How the values were obtained:
LGR6 = molecular target: T1, LGR6 (Homo sapiens, UniProt Q9HBX8); experiment: cAMP accumulation in CHO-K1 cells transiently transfected with LGR6; type: cell-based; conditions: 1 uM, without Forskolin, FIG. 3A
T1 construct: expressed in transfected cells; host or cells: CHO-K1 (transient)
T1 sequence (Q9HBX8 25-967): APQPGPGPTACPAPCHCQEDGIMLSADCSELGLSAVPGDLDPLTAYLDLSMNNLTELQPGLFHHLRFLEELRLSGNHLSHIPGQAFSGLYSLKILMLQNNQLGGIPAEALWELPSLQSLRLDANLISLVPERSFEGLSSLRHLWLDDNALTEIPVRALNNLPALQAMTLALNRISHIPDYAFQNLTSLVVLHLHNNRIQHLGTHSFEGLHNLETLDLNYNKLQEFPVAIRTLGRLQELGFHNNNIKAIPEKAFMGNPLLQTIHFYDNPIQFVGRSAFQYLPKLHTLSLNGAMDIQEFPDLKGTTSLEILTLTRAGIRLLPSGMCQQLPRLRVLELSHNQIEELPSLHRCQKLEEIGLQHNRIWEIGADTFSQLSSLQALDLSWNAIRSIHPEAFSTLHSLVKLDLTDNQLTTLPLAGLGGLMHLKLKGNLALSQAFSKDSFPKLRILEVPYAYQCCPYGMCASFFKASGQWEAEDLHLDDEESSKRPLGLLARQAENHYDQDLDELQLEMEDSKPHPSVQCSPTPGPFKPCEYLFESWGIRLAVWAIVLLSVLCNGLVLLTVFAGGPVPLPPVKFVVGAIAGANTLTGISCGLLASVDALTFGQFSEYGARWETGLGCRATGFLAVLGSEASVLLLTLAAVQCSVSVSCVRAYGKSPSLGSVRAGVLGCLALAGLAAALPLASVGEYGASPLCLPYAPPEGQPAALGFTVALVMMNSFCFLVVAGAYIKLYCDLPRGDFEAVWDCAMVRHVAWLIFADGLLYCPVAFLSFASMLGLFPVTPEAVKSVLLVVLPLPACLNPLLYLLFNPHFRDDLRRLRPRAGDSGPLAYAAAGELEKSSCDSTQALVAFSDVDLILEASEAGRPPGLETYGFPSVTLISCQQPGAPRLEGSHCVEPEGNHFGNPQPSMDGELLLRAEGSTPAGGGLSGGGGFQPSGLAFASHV
Procedure: [The procedure below names another target; the source says it served here with some conditions changed.] LGR7 (RXFP1) or LGR8 (RXFP2) were transiently transfected into CHO-K1 cells as follows: Cells (12 million) were plated into T75 flasks on the day preceding transfection. Cells were transfected with a GPCR DNA and Gα16 using a lipid technique according to the manufacturer's recommendation. Cells were transfected for 5 hours, then re-plated into 96-well dishes (60,000 cells per well) and grown overnight. Transfected cells were plated into 24 wells of a 96-well plate. Cells were pre-treated with 0.5 mM IBMX (stimulation buffer) for 10 min at 37° C., then stimulated with either a positive control (Relaxin 2) or a candidate peptide (for Gs functional examination), followed by stimulation or a preincubation with 10 μM forskolin (for Gi functional examination). Following a 20 minutes stimulation by incubation with 1 μM of either positive control or the tested peptides, either with or without forskolin, intracellular cAMP was assayed using the Hit Hunter cAMP kit (DiscoveRx Corporation) according to the manufacturer's recommended protocol. Data was converted to nmol of cAMP by running a standard cAMP curve.

GPR135 (RXFP3) = molecular target: T2, GPR135 (RXFP3) (Homo sapiens, UniProt Q9NSD7); experiment: cAMP HTRF assay on Euroscreen RXFP3 recombinant cells; type: cell-based; conditions: increasing concentrations, 30 min; FIG. 5
T2 construct: host or cells: CHO-K1 recombinant cell line (Euroscreen)
T2 sequence (Q9NSD7 1-469): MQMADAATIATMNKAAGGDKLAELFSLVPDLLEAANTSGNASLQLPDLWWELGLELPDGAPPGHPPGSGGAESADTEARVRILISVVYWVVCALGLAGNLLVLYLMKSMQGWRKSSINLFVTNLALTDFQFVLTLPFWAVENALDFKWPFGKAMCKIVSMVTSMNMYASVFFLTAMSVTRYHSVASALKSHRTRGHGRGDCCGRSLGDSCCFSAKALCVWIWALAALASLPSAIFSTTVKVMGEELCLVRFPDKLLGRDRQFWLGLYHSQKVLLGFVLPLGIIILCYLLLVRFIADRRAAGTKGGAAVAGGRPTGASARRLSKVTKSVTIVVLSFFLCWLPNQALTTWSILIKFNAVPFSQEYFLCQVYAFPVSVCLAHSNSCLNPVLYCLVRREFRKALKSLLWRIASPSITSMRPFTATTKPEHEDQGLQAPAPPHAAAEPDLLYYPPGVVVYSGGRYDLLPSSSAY
Procedure: The ability of P59C13V (SEQ ID NO: 6) and H3 Relaxin to activate CHO-K1 cells transfected by GPR135 (RXFP3), which is a non-LGR, Relaxin related receptor, was tested. The assay was performed by Euroscreen. For cAMP concentration analysis, Euroscreen cat. ES-656-A-cells (RXFP3, Euroscreen cat. ES-656-A) grown to mid-log phase in culture media without antibiotics were detached with PBS-EDTA, centrifuged and resuspended in assay buffer at a concentration of […]. The test was performed in 96 well plates. For agonist testing, 12 μl of cells (5×10^3 cells/well) were mixed with 12 μl of agonist Either H3-Relaxin or P59C13V (P59) (SEQ ID NO: 6) at increasing concentrations. The plates were then incubated for 30 min at room temperature. After addition of the lysis buffer, cAMP concentrations were estimated, according to the manufacturer specification, with the HTRF kit from Cis-Bio International (cat no 62AM2PEB).
.Relaxin 3 Fit (Eeuroscreen) was used as a positive control. RXFP3 (GPCR135) transfected cells were challenged with increasing concentrations of Relaxin 3 (H3 Relaxin—as a positive control—[…]) or P59C13V (P59) (SEQ ID NO: 6) (1 nM-3 uM).

Row | cAMP activation (Gs) of RXFP3 (GPR135 (RXFP3)) | Substance | Gs activation (cAMP accumulation) (LGR6)
1 | – | GQKGQVGPPGAAVRRAYAAFSVGRRAYAAFSV-OH [Peptide P74C13V] | significant increase in cAMP accumulation; also recorded: slight Gs activation
2 | didn't show any cAMP activation (Gs) | GQKGQVGPPGAAVRRAYAAFSV [Peptide P59C13V] | –

— patent US8492329B2, “Bioactive peptides and methods of using same” (Compugen Ltd., priority 2007, dated 2013)
